# Calls of active or inactive are those of the source. No cut-off for these calls is given here.
# Key:
# [1] = target: Neuronal acetylcholine receptor subunit alpha-7 (Rattus norvegicus, UniProt Q05941); test: Displacement of [3H]585539 from alpha7 nAChR in rat brain; format: tissue-based
# [2] = target: Neuronal acetylcholine receptor; alpha4/beta2 (Rattus norvegicus) (UniProt P09483+P12390); test: Displacement of [3H]cytisine from rat brain alpha4beta2 nAChR up to 10 uM
# [3] = target: T1, Neuronal acetylcholine receptor subunit alpha-7 (Homo sapiens, UniProt P36544); test: Agonist activity at human recombinant alpha7 nAChR expressed in xenopus oocytes assessed as induction of Ca2+ current relative to acetylcholine; format: functional, cell-based; details: Oocyte
# T1 sequence (P36544 whole entry): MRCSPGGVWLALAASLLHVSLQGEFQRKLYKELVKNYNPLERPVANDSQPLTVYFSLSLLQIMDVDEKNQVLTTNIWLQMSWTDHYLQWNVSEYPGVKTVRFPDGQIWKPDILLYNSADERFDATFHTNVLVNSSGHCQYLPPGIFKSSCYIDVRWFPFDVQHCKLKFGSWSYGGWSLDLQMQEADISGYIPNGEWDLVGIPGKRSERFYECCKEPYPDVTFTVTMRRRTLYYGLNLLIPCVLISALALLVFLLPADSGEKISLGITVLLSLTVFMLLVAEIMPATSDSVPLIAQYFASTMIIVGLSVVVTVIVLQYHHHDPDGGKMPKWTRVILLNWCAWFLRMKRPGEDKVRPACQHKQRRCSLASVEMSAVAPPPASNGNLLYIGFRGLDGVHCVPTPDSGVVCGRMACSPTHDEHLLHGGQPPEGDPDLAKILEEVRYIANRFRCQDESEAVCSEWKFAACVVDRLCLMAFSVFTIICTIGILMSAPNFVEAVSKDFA
# [4] = target: T1, Neuronal acetylcholine receptor subunit alpha-7; test: Agonist activity at human recombinant alpha7 nAChR expressed in xenopus oocytes assessed as induction of Ca2+ current; format: functional, cell-based, Oocyte
# [5] = target: Neuronal acetylcholine receptor; alpha3/beta4 (Homo sapiens, UniProt P30926+P32297); test: Inhibition of alpha3beta4 nAChR
# Chain of Neuronal acetylcholine receptor; alpha3/beta4 (P30926 whole entry): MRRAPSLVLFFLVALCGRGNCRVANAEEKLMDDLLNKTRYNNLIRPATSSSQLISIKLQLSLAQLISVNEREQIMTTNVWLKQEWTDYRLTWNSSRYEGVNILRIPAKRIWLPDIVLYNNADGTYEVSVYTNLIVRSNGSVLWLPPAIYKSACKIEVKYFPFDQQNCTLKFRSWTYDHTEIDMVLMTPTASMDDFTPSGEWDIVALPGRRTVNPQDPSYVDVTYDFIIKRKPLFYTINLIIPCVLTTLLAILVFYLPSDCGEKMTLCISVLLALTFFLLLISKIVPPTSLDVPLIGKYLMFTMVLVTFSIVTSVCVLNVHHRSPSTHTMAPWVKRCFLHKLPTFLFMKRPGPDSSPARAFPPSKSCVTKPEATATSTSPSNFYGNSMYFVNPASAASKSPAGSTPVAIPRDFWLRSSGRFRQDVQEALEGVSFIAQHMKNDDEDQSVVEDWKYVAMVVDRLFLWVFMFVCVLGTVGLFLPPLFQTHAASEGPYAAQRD
# Chain of Neuronal acetylcholine receptor; alpha3/beta4 (P32297 whole entry): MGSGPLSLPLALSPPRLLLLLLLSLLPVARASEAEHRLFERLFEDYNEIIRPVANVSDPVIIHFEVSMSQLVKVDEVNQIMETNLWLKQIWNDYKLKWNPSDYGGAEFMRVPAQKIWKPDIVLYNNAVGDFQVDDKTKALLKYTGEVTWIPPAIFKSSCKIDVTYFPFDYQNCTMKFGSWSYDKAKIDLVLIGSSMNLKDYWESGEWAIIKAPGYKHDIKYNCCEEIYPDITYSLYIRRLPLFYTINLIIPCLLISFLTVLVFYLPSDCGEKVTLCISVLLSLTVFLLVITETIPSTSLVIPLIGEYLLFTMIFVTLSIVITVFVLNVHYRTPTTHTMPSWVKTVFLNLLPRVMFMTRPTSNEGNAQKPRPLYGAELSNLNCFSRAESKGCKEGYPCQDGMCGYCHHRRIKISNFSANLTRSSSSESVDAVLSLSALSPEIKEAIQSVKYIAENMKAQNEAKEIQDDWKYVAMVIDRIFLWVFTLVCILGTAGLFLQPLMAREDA
# [6] = target: Neuronal acetylcholine receptor; alpha4/beta2 (Homo sapiens, UniProt P17787+P43681); test: Inhibition of alpha4beta2 nAChR; format: protein-complex assay
# Chain of Neuronal acetylcholine receptor; alpha4/beta2 (P17787 whole entry): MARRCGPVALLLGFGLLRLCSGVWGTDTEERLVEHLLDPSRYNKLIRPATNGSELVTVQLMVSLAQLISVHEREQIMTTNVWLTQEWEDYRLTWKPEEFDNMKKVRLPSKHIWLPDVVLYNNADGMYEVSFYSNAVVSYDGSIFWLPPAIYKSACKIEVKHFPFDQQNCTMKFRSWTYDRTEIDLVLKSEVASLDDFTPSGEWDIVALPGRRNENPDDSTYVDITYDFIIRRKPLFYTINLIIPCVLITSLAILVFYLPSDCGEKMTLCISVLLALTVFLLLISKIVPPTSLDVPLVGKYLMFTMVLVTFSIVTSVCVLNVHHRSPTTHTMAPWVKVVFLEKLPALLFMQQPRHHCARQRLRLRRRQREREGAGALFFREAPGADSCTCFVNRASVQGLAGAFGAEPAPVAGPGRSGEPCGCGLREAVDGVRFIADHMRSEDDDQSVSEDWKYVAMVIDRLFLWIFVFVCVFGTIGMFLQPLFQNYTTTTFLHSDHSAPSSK
# Chain of Neuronal acetylcholine receptor; alpha4/beta2 (P43681 whole entry): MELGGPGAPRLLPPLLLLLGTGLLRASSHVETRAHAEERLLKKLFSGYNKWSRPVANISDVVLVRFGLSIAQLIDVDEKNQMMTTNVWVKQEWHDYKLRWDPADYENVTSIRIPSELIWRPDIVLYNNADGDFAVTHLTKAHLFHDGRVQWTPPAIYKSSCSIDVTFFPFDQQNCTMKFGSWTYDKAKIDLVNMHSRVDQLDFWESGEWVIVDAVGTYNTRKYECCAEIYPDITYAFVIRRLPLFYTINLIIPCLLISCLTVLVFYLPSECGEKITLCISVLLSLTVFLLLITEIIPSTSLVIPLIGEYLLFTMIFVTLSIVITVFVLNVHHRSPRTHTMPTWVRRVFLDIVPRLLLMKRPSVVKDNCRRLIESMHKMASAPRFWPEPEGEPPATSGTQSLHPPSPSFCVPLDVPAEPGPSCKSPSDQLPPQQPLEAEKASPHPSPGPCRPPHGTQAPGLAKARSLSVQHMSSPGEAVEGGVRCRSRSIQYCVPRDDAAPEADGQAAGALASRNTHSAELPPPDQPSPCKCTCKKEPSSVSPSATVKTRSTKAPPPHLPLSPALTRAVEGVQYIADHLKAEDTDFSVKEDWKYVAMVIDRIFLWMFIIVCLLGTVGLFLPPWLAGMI
# Chain of Neuronal acetylcholine receptor subunit alpha-7 (Rattus norvegicus, UniProt Q05941) (Q05941 whole entry): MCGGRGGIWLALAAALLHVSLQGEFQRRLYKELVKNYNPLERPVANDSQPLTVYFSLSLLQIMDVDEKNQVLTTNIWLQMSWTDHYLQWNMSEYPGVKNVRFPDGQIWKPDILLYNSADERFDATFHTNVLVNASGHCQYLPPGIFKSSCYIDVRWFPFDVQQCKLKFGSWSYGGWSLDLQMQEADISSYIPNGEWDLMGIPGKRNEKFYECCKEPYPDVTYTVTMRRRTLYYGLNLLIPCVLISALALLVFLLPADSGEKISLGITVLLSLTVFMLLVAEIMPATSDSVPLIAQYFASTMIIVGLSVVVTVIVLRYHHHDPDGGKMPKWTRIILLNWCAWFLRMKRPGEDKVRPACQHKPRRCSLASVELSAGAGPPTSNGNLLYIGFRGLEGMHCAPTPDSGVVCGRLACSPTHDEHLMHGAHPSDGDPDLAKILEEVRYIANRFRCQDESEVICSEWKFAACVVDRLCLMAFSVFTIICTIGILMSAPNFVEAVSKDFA
SMILES,Ki [1] [nM],Activity [2],other results
c1ccc(-c2ccc(N3C[C@H]4CN(Cc5ccccn5)C[C@H]4C3)nn2)cc1,533,inactive,
CN(Cc1ccncc1)C1CCN(c2ccc(-c3ccccc3)nn2)C1 (racemic),> 10,inactive,
c1ccc(CN2C[C@@H]3CN(c4ccc(-c5ccccc5)nn4)C[C@@H]3C2)cc1,476,inactive,
c1ccc(-c2ccc(N3C[C@H]4CN(Cc5cccnc5)C[C@H]4C3)nn2)cc1,3.6,inactive,Activity [3]: 84%; EC50 [4]: 9360 nM
CN(Cc1ccccn1)C1CCN(c2ccc(-c3ccccc3)nn2)C1 (racemic),> 10000,inactive,
CNC1CCN(c2ccc(-c3ccccc3)nn2)C1 (stereo not drawn),> 10,,
CN1C[C@@H]2CN(c3ccc(-c4ccccc4)nn3)C[C@@H]2[C@@H]1COc1cccnc1,320,,EC50 [4]: > 100000 nM
CN(C)C1CCN(c2ccc(-c3ccccc3)nn2)C1 (racemic),478,inactive,
CCN(C)C1CCN(c2ccc(-c3ccccc3)nn2)C1 (racemic),746,inactive,
CN(Cc1cccnc1)C1CCN(c2ccc(-c3ccccc3)nn2)C1 (racemic),> 10000,inactive,
CN1C[C@@H]2CN(c3ccc(-c4ccccc4)nn3)C[C@@H]2C1,,,Ki [5]: 4700 nM; Ki [6]: > 100000 nM
Clc1ccc(CN2C[C@@H]3CN(c4ccc(-c5ccccc5)nn4)C[C@@H]3C2)cn1,102,inactive,Activity [3]: 13%; EC50 [4]: 11800 nM
CCN1C[C@@H]2CN(c3ccc(-c4ccccc4)nn3)C[C@@H]2C1,,inactive,
Clc1ccc(C2CC3CCC2N3)cn1 (stereo not drawn),,,INH [6]: 0.1 nM
c1ccc(-c2ccc(N3C[C@H]4CN(Cc5ccncc5)C[C@H]4C3)nn2)cc1,541,inactive,
CN(Cc1ccccc1)C1CCN(c2ccc(-c3ccccc3)nn2)C1 (racemic),> 10000,inactive,
CN1C[C@@H]2CN(c3ccc(-c4ccccc4)nn3)C[C@@H]2[C@H]1COc1cccnc1,42,,Activity [3]: 44%; EC50 [4]: 12900 nM
CN(Cc1ccc(Cl)nc1)C1CCN(c2ccc(-c3ccccc3)nn2)C1 (racemic),> 10,inactive,

# Source: ChEMBL document CHEMBL1153174, “Structure-activity relationships of N-substituted ligands for the alpha7 nicotinic acetylcholine receptor” (Bioorg Med Chem Lett, 2010)
